Data published in patent publication US7196110B2, “N-substituted tricyclic 3-aminopyrazoles as inhibitors for the treatment of cell proliferative disorders” (Janssen Phamaceutica N.V., priority 2002, dated 2007).
Read-outs that look alike come from different tables or passages of the source. Values belong to the compound of their own block, whether it stands above or below them.

Molecular target: T1, PDGF-receptor beta enzyme comprising the tyrosine kinase domain (Homo sapiens, UniProt P09619)
T1 construct: from amino acid 545 to 1106 of GenBank Access NO: AAA36427
T1 sequence (P09619 545-1106): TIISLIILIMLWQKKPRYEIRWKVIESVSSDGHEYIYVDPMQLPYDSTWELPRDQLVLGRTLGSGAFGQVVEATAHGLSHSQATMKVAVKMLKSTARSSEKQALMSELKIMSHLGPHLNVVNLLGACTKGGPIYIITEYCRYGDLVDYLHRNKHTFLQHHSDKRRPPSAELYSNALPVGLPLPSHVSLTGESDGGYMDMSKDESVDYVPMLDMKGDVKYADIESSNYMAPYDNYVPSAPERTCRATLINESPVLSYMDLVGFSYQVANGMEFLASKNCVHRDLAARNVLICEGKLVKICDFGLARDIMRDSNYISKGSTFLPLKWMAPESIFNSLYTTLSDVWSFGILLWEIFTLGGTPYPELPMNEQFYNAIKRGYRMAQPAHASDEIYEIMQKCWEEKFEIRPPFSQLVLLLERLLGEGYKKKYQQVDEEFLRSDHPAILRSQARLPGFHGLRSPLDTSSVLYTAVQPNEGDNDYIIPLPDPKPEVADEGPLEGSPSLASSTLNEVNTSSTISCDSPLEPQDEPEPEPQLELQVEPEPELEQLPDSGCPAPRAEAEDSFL
Assay: Inhibition of PDGF-receptor kinase activity (cell-free, PLC1 peptide, 33P Flashplate)
Type: biochemical
Conditions: for inhibition at 10 µM: read-out: Percent Inhibition @ 10 uM
Method in brief: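 The IC50 is the inhibitor level halving kinase activity relative to inhibitor-free wells, measured as 33P captured on a streptavidin-bound biotin-PLC1 peptide. The reaction ran 60 min at 30 °C in pH 8 Tris buffer with 1 mM DTT, 5 μM ATP and the 545–1106 kinase-domain enzyme.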

[1] = PDGF-R kinase activity, compound at 10 uM
[2] = PDGF-R kinase activity, read-out: IC50

- inhibition at 10 µM [1]: 84.5%
- IC50 [2]: 0.444 µM
SMILES: COc1cc2c(cc1OC)-c1c(c(Nc3cccc(F)c3)nn1C(=O)C(C)C)C2 [Compound 431, 1-[3-(3-Fluoro-phenylamino)-6,7-dimethoxy-4H-indeno[1,2-c]pyrazol-1-yl]-2-methyl-propan-1-one]

- inhibition at 10 µM [1]: 67%
- IC50 [2]: 1.59 µM
SMILES: CCOC(=O)n1nc2c(c1Nc1cccc(F)c1)Cc1cc(OC)c(OC)cc1-2 [Compound 435, 3-(3-Fluoro-phenylamino)-6,7-dimethoxy-4H-indeno[1,2-c]pyrazole-2-carboxylic acid ethyl ester]

- inhibition at 10 µM [1]: 83.5%
- IC50 [2]: 0.291 µM
SMILES: COCCOC(=O)n1nc2c(c1Nc1cccc(F)c1)Cc1cc(OC)c(OC)cc1-2 [Compound 437, 3-(3-Fluoro-phenyl-amino)-6,7-dimethoxy-4H-indeno[1,2-c]pyrazole-2-carboxylic acid 2-methoxy-ethyl ester]

- inhibition at 10 µM [1]: 96%
- IC50 [2]: 0.206 µM
SMILES: CCOc1cccc(Nc2[nH]nc3c2Cc2c(OCCCO)cccc2-3)c1 [Compound 441, 3-[3-(3-Ethoxy-phenylamino)-2,4-dihydro-indeno[1,2-c]pyrazol-5-yloxy]-propan-1-ol]

- inhibition at 10 µM [1]: 89.5%
- IC50 [2]: 0.098 µM
SMILES: OCCCOc1cccc2c1Cc1c-2n[nH]c1NCc1c(F)cccc1F [Compound 443, 3-[3-(2,6-Difluoro-benzylamino)-2,4-dihydro-indeno[1,2-c]pyrazol-5-yloxy]-propan-1-ol]

- inhibition at 10 µM [1]: 79.5%
- IC50 [2]: 0.518 µM
SMILES: OCCCOc1cccc2c1Cc1c-2n[nH]c1NCc1ccccc1F [Compound 444, 3-[3-(2-Fluoro-benzylamino)-2,4-dihydro-indeno[1,2-c]pyrazol-5-yloxy]-propan-1-ol]

- inhibition at 10 µM [1]: 95%
- IC50 [2]: 0.0253 µM
SMILES: Cc1ccccc1CNc1[nH]nc2c1Cc1c(OCCCO)cccc1-2 [Compound 445, 3-[3-(2-Methyl-benzylamino)-2,4-dihydro-indeno[1,2-c]pyrazol-5-yloxy]-propan-1-ol]

- inhibition at 10 µM [1]: 100%
- IC50 [2]: 0.000938 µM
SMILES: COc1cc2c(cc1OCC(O)CO)Cc1c-2n[nH]c1NCc1c(Cl)cccc1Cl (stereo not drawn) [Compound 450, 3-[3-(2,6-Dichloro-benzylamino)-7-methoxy-2,4-dihydro-indeno[1,2-c]pyrazol-6-yloxy]-propane-1,2-diol]

- inhibition at 10 µM [1]: 99.5%
- IC50 [2]: 0.002 µM
SMILES: COc1cc2c(cc1OCC(O)CO)Cc1c-2n[nH]c1NCc1ccccc1Cl (stereo not drawn) [Compound 451, 3-[3-(2-Chloro-benzylamino)-7-methoxy-2,4-dihydro-indeno[1,2-c]pyrazol-6-yloxy]-propane-1,2-diol]

- inhibition at 10 µM [1]: 88%
- IC50 [2]: 0.829 µM
SMILES: COc1ccncc1Nc1[nH]nc2c1Cc1cc(OC)c(OC)cc1-2 [Compound 453, (6,7-Dimethoxy-2,4-dihydro-indeno[1,2-c]pyrazol-3-yl)-(4-methoxy-pyridin-3-yl)-amine]

- inhibition at 10 µM [1]: 95%
- IC50 [2]: 0.153 µM
SMILES: COc1cc2c(cc1OC)-c1n[nH]c(NCc3cc(-c4ccccc4)on3)c1C2 [Compound 455, (6,7-Dimethoxy-2,4-dihydro-indeno[1,2-c]pyrazol-3-yl)-(5-phenyl-isoxazol-3-ylmethyl)-amine]

- inhibition at 10 µM [1]: 99%
- IC50 [2]: 0.00215 µM
SMILES: CCOc1cc2c(cc1OCC(O)CN1CCCC1)-c1n[nH]c(Nc3cccc(OC)c3)c1C2 (stereo not drawn) [Compound 462, 1-[6-Ethoxy-3-(3-methoxy-phenylamino)-2,4-dihydro-indeno[1,2-c]pyrazol-7-yloxy]-3-pyrrolidin-1-yl-propan-2-ol]

- inhibition at 10 µM [1]: 92%
- IC50 [2]: 0.245 µM
SMILES: COC(=O)CCCC(=O)n1nc(Nc2cccc(F)c2)c2c1-c1cc(OC)c(OC)cc1C2 [Compound 464, 5-[3-(3-Fluoro-phenylamino)-6,7-dimethoxy-4H-indeno[1,2-c]pyrazol-1-yl]-5-oxo-pentanoic acid methyl ester]

- inhibition at 10 µM [1]: 96%
- IC50 [2]: 0.197 µM
SMILES: COc1cc2c(cc1OC)-c1c(c(Nc3cccc(F)c3)nn1C(=O)OCCOCc1ccccc1)C2 [Compound 470, 3-(3-Fluoro-phenylamino)-6,7-dimethoxy-4H-indeno[1,2-c]pyrazole-1-carboxylic acid 2-benzyloxy-ethyl ester]

More lines, now with the values behind:

SMILES: COC(=O)n1nc2c(c1Nc1cccc(F)c1)Cc1cc(OC)c(OC)cc1-2 [Compound 434, 3-(3-Fluoro-phenylamino)-6,7-dimethoxy-4H-indeno[1,2-c]pyrazole-2-carboxylic acid methyl ester]
- inhibition at 10 µM [1]: 86%
- IC50 [2]: 0.503 µM

SMILES: COCCOC(=O)n1nc(Nc2cccc(F)c2)c2c1-c1cc(OC)c(OC)cc1C2 [Compound 438, 3-(3-Fluoro-phenylamino)-6,7-dimethoxy-4H-indeno[1,2-c]pyrazole-1-carboxylic acid 2-methoxy-ethyl ester]
- inhibition at 10 µM [1]: 77.5%
- IC50 [2]: 0.992 µM

SMILES: COC(=O)n1nc(Nc2cccc(F)c2)c2c1-c1cc(OC)c(OC)cc1C2 [Compound 439, 3-(3-Fluoro-phenylamino)-6,7-dimethoxy-4H-indeno[1,2-c]pyrazole-1-carboxylic acid methyl ester]
- inhibition at 10 µM [1]: 69.5%
- IC50 [2]: 0.62 µM

SMILES: OCCCOc1cccc2c1Cc1c-2n[nH]c1Nc1cccc(Cl)c1 [Compound 440, 3-[3-(3-Chloro-phenylamino)-2,4-dihydro-indeno[1,2-c]pyrazol-5-yloxy]-propan-1-ol]
- inhibition at 10 µM [1]: 89.5%
- IC50 [2]: 0.0457 µM

SMILES: OCCCOc1cccc2c1Cc1c-2n[nH]c1Nc1cccc(F)c1 [Compound 442, 3-[3-(3-Fluoro-phenylamino)-2,4-dihydro-indeno[1,2-c]pyrazol-5-yloxy]-propan-1-ol]
- inhibition at 10 µM [1]: 94.5%
- IC50 [2]: 0.205 µM

SMILES: CCOP(=O)(OCC)n1nc(Nc2cccc(F)c2)c2c1-c1cc(OC)c(OC)cc1C2 [Compound 446, [3-(3-Fluoro-phenylamino)-6,7-dimethoxy-4H-indeno[1,2-c]pyrazol-1-yl]-phosphonic acid diethyl ester]
- IC50 (IC50 (μM), PDGF-R kinase activity): 0.266 µM
- inhibition at 10 µM: 93.5%

SMILES: COc1cc2c(cc1OC)-c1c(c(Nc3cccc(F)c3)nn1S(=O)(=O)N(C)C)C2 [Compound 447, 3-(3-Fluoro-phenylamino)-6,7-dimethoxy-4H-indeno[1,2-c]pyrazole-1-sulfonic acid dimethylamide]
- inhibition at 10 µM [1]: 7%

SMILES: COc1cc2c(cc1OC)-c1n[nH]c(Nc3c(OC)ccnc3OC)c1C2 [Compound 454, (6,7-Dimethoxy-2,4-dihydro-indeno[1,2-c]pyrazol-3-yl)-(2,4-dimethoxy-pyridin-3-yl)-amine]
- inhibition at 10 µM [1]: 99%
- IC50 [2]: 0.258 µM

SMILES: COc1ccc(C(=O)n2nc(Nc3cccc(F)c3)c3c2-c2cc(OC)c(OC)cc2C3)cc1 [Compound 458, [3-(3-Fluoro-phenylamino)-6,7-dimethoxy-4H-indeno[1,2-c]pyrazol-1-yl]-(4-methoxy-phenyl)-methanone]
- inhibition at 10 µM [1]: 70.5%
- IC50 [2]: 7 µM

SMILES: COCn1nc(Nc2cccc(F)c2)c2c1-c1cc(OC)c(OC)cc1C2 [Compound 472, (6,7-Dimethoxy-1-methoxymethyl-1,4-dihydro-indeno[1,2-c]pyrazol-3-yl)-(3-fluoro-phenyl)-amine]
- inhibition at 10 µM [1]: 35%

SMILES: COCC(=O)OCC(=O)n1nc(Nc2cccc(F)c2)c2c1-c1cc(OC)c(OC)cc1C2 [Compound 473, Methoxy-acetic acid 2-[3-(3-fluoro-phenylamino)-6,7-dimethoxy-4H-indeno[1,2-c]pyrazol-1-yl]-2-oxo-ethyl ester]
- inhibition at 10 µM [1]: 98.5%
- IC50 [2]: 0.00896 µM
